Data: patent publication US6699505B2, “Method of increasing the efficacy of antibiotics by compexing with cyclodextrins” (Massachusetts Institute of Technology, priority 2000, dated 2004)

Experiments:
B. forsythus = assay: Zone of inhibition of PLGA chips in wells of seeded agar plates; assay type: cell-based; details: for zone of inhibition of bacterial growth: PLGA chips 4 mm×5 mm×0.5 mm in wells, B. forsythus agar, anaerobic 37° C., measured daily
Source text: (§1) FIG. 1 is a graph charting the change in size of the zone of growth inhibition of the bacterium P. gingivalis over time. The antibiotic being tested (complexed or non-complexed) is applied to a specific point near or within an area of bacterial growth on an agar plate. The bioactive agent diffuses from the application point and causes lysis of already growing bacteria, or inhibition of growth of bacteria within the zone of diffusion. The diameter of bacterial lysis or growth inhibition is a measure of the potency of the bioactive agent. […] A relatively small zone of lysis or growth inhibition indicates a less biologically active agent.
(§2) Increased biological activity of the antibiotic chlorhexidine was tested by placing chips composed of chorhexidine (C) and clorhexidine digluconate (Cg) complexed with hydroxypropyl-β-cyclodextrin (H) or methylated β-cyclodextrin adjacent to a tooth in agar seeded with P. gingivalis or B. forsythus. The agar plates were incubated to allow growth of the bacterium for 12-15 days and the zone of inhibition of bacterial growth around each chip was measured. An increase in biological activity was measured by an increase in the size of the zone of inhibition around the chip containing the complexed antibiotic compared to the size of the zone around the chip containing the uncomplexed antibiotic.
(§3) More particularly, the method used the following steps:
(§4) Mix: 5 g Trypticase Soy Agar
(§5) 6.5 g Brain Heart Infusion
(§6) Autoclave mixture for 15 minutes at 121 degree Celsius.
(§7) Cool to 50 degrees Celsius for 1 hour.
(§8) Add: 12.5 mL defibrinated sheep blood.
(§9) 300 uL N-acetylmuramic acid (100x).
(§10) Prepared B. forsythus and P. gingivalis culture solution with an optical density of 1˜10^9 cells/mL.
(§11) Added 2 mL of bacteria culture into their respective agar solutions.
(§12) Pour 20 mL agar solution into 150 mm diameter petri dishes.
(§13) Place well former into petri dishes.
(§14) Allow agar to harden by cooling to room temperature for 1 hour.
(§15) Place petri dishes in anaerobic chamber at 37° C. in an atmosphere consisting of 80% nitrogen, 10% hydrogen, and 10% carbon dioxide for 2 days.
(§16) Place 4 mm×5 mm×0.5 mm PLGA chips composed of: Cg, C, C/H, Cg/M, M, and H into preformed wells.
(§17) Masses of each component based on 25 wt % of Cg with respect to a 10 mg chip.
(§18) Add MilliQ water into wells to keep chips hydrated.
(§19) Keep petri dishes in anaerobic chamber during entire experiment.
(§20) Measure zones of inhibition daily using electronic calipers from the center of the well.
(§21) Experiments done in triplicate.

P. gingivalis = assay: as above; assay type: cell-based; details: PLGA chips 4 mm×5 mm×0.5 mm in wells, anaerobic 37° C., measured daily
Source text: as §1, §2, §3, §4, §5, §6, §7, §8, §9, §10, §11, §12, §13, §14, §15, §16, §17, §18, §19, §20, §21

[H]/N=C(\N/C(=N/[H])NCCCCCCNC(=N)NC(=N)Nc1ccc(Cl)cc1)Nc1ccc(Cl)cc1 [C, Chlorhexidine]
zone of inhibition (B. forsythus; B. forsythus, FIG. 1 right panel): about 40 mm
zone of inhibition of bacterial growth (B. forsythus): statistically similar
zone of inhibition of bacterial growth (P. gingivalis): statistically similar

N=C(NCCCCCCNC(=N)NC(=N)Nc1ccc(Cl)cc1)NC(=N)Nc1ccc(Cl)cc1.O=C(O)[C@H](O)[C@@H](O)[C@H](O)[C@H](O)CO.O=C(O)[C@H](O)[C@@H](O)[C@H](O)[C@H](O)CO [Cg, Chlorhexidine Digluconate]
zone of inhibition of bacterial growth (B. forsythus): statistically similar
zone of inhibition of bacterial growth (P. gingivalis): statistically similar
